Measurements from US12655116B2, “Substituted isophthalic acid diamides” (Bayer Aktiengesellschaft, priority 2020, dated 2026).

Key:
ECHCG [1] = test: Pre-emergence herbicidal action against ECHCG; assay type: in vivo, Echinochloa crus-galli; conditions: Echinochloa crus-galli, 504 h, 80 g/ha
How it was run: (§1)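 Herbicidal effect was assessed 3 weeks after treatment by visual comparison with untreated controls, 100% denoting dead plants. Aqueous WP or EC preparations had been applied at 600 to 800 l/ha with 0.2% wetting agent to the soil covering freshly sown seeds.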

ABUTH [2] = test: Pre-emergence herbicidal action against ABUTH; assay type: in vivo, Abutilon theophrasti; conditions: Abutilon theophrasti, 504 h; for pest or weed control at 80 g/ha: scored visually after 3 weeks vs untreated controls (100% = plants have died, 0% = like control plants)
How it was run: as §1

ALOMY [3] = test: Post-emergence herbicidal action against ALOMY; assay type: in vivo, Alopecurus myosuroides; conditions: Alopecurus myosuroides, 504 h, visual assessment about 3 weeks after treatment vs untreated controls; for pest or weed control at 5 g/ha: dosage 5 g/ha; for pest or weed control at 20 g/ha: dosage 20 g/ha
How it was run: (§2)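 Post-emergence greenhouse test; one-leaf stage, 2–3 wk post-sowing, sandy loam. Foliar spray of WP/EC in water, 600–800 l/ha, +0.2% wetting agent. Visual % action at ~3 wk vs untreated (100% = plants dead).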

AMARE [4] = test: Pre-emergence herbicidal action against AMARE; assay type: in vivo, Amaranthus retroflexus; conditions: Amaranthus retroflexus, 504 h, scored visually after 3 weeks vs untreated controls, 100% = plants have died, 0% = like control plants
How it was run: as §1

AVEFA [5] = test: Pre-emergence herbicidal action against AVEFA; assay type: in vivo, Avena fatua; conditions: Avena fatua, 504 h, pre-emergence; for pest or weed control at 20 g/ha: scored visually after 3 weeks, 100% = plants have died, 0% = like control plants
How it was run: as §1

MATIN [6] = test: Pre-emergence herbicidal action against MATIN; assay type: in vivo, Matricaria inodora; conditions: Tripleurospermum inodorum, 504 h; for pest or weed control at 20 g/ha: dosage 20 g/ha; for pest or weed control at 80 g/ha: dosage 80 g/ha
How it was run: as §1

ALOMY [7] = test: Pre-emergence herbicidal action against ALOMY; assay type: in vivo, Alopecurus myosuroides; conditions: Alopecurus myosuroides, 504 h, pre-emergence; for pest or weed control at 80 g/ha: scored visually after 3 weeks vs untreated controls (100% = plants have died, 0% = like control plants); for pest or weed control at 20 g/ha: scored visually after 3 weeks, 100% = plants have died, 0% = like control plants
How it was run: as §1

PHBPU [8] = test: Pre-emergence herbicidal action against PHBPU; assay type: in vivo, Pharbitis purpurea; conditions: Ipomoea purpurea, 504 h
How it was run: as §1

ABUTH [9] = test: Post-emergence herbicidal action against ABUTH; assay type: in vivo, Abutilon theophrasti; conditions: Abutilon theophrasti, 504 h, visual assessment about 3 weeks after treatment vs untreated controls; for pest or weed control at 5 g/ha: dosage 5 g/ha; for pest or weed control at 20 g/ha: dosage 20 g/ha
How it was run: as §2

DIGSA = test: Pre-emergence herbicidal action against DIGSA; assay type: in vivo, Digitaria sanguinalis; conditions: Digitaria sanguinalis, 504 h; for pest or weed control at 20 g/ha: dosage 20 g/ha; for pest or weed control at 80 g/ha: dosage 80 g/ha
How it was run: as §1

SETVI [10] = test: Post-emergence herbicidal action against SETVI; assay type: in vivo, Setaria viridis; conditions: Setaria viridis, 504 h; for pest or weed control at 20 g/ha: dosage 20 g/ha
How it was run: as §2

SETVI [11] = test: Pre-emergence herbicidal action against SETVI; assay type: in vivo, Setaria viridis; conditions: Setaria viridis, 504 h; for pest or weed control at 80 g/ha: dosage 80 g/ha
How it was run: as §1

LOLRI = test: Pre-emergence herbicidal action against LOLRI; assay type: in vivo, Lolium rigidum; conditions: Lolium rigidum, 504 h, 80 g/ha
How it was run: as §1

VIOTR [12] = test: Pre-emergence herbicidal action against VIOTR; assay type: in vivo, Viola tricolor; conditions: Viola tricolor, 504 h; for pest or weed control at 20 g/ha: dosage 20 g/ha; for pest or weed control at 80 g/ha: dosage 80 g/ha
How it was run: as §1

ECHCG [13] = test: Post-emergence herbicidal action against ECHCG; assay type: in vivo, Echinochloa crus-galli; conditions: Echinochloa crus-galli, 504 h; for pest or weed control at 20 g/ha: dosage 20 g/ha
How it was run: as §2

AVEFA [14] = test: Post-emergence herbicidal action against AVEFA; assay type: in vivo, Avena fatua; conditions: Avena fatua, 504 h, 20 g/ha, visual assessment about 3 weeks after treatment, 100% = plants have died, 0% = like control plants
How it was run: as §2

VERPE = test: Pre-emergence herbicidal action against VERPE; assay type: in vivo, Veronica persica; conditions: Veronica persica, 504 h; for pest or weed control at 80 g/ha: dosage 80 g/ha
How it was run: as §1

PHBPU [15] = test: Post-emergence herbicidal action against PHBPU; assay type: in vivo, Pharbitis purpurea; conditions: Ipomoea purpurea, 504 h, dosage 20 g/ha
How it was run: as §2

AMARE [16] = test: Post-emergence herbicidal action against AMARE; assay type: in vivo, Amaranthus retroflexus; conditions: Amaranthus retroflexus, 504 h, 20 g/ha, visual assessment about 3 weeks after treatment, 100% = plants have died, 0% = like control plants
How it was run: as §2

MATIN [17] = test: Post-emergence herbicidal action against MATIN; assay type: in vivo, Matricaria inodora; conditions: Tripleurospermum inodorum, 504 h; for pest or weed control at 5 g/ha: dosage 5 g/ha; for pest or weed control at 20 g/ha: dosage 20 g/ha
How it was run: as §2

VIOTR [18] = test: Post-emergence herbicidal action against VIOTR; assay type: in vivo, Viola tricolor; conditions: Viola tricolor, 504 h, 20 g/ha
How it was run: as §2

| SMILES | pest or weed control at 80 g/ha (ECHCG [1]) [%] | pest or weed control at 80 g/ha (ABUTH [2]) [%] | pest or weed control at 5 g/ha (ALOMY [3]) [%] | pest or weed control at 20 g/ha (ALOMY [3]) [%] | pest or weed control at 20 g/ha (AMARE [4]) [%] | pest or weed control at 80 g/ha (AMARE [4]) [%] | pest or weed control at 80 g/ha (AVEFA [5]) [%] | pest or weed control at 20 g/ha (AVEFA [5]) [%] | pest or weed control at 20 g/ha (MATIN [6]) [%] | pest or weed control at 80 g/ha (MATIN [6]) [%] | pest or weed control at 80 g/ha (ALOMY [7]) [%] | pest or weed control at 20 g/ha (ALOMY [7]) [%] | pest or weed control at 5 g/ha (ABUTH [9]) [%] | pest or weed control at 20 g/ha (ABUTH [9]) [%] | pest or weed control at 20 g/ha (DIGSA) [%] | pest or weed control at 80 g/ha (DIGSA) [%] | pest or weed control at 20 g/ha (SETVI [10]) [%] | pest or weed control at 80 g/ha (SETVI [11]) [%] | pest or weed control at 80 g/ha (LOLRI) [%] | pest or weed control at 20 g/ha (VIOTR [12]) [%] | other results |
| --- | --- | --- | --- | --- | --- | --- | --- | --- | --- | --- | --- | --- | --- | --- | --- | --- | --- | --- | --- | --- | --- |
| CCn1nnnc1NC(=O)c1ccc(C(F)(F)F)c(C(=O)NC(C)C)c1C [Example 2-33] | 100 | 100 | 90 | 100 | 100 | 100 | 90 | 80 | 100 | 100 | 100 | 90 | 90 | 90 | 100 | 100 | 100 | 100 | 80 | 100 | pest or weed control at 20 g/ha (ABUTH [2]; dosage 20 g/ha, scored visually after 3 weeks vs untreated controls, 100% = plants have died, 0% = like control plants, read-out: Pre-emergence action against ABUTH (herbicidal activity in percent)): 100%; pest or weed control at 20 g/ha (PHBPU [8]; dosage 20 g/ha): 80%; pest or weed control at 80 g/ha (PHBPU [8]; dosage 80 g/ha): 80%; pest or weed control at 5 g/ha (SETVI [10]; dosage 5 g/ha): 80%; pest or weed control at 20 g/ha (SETVI [11]; dosage 20 g/ha): 80%; pest or weed control at 80 g/ha (VIOTR [12]): 100%; pest or weed control at 5 g/ha (ECHCG [13]; dosage 5 g/ha): 90%; pest or weed control at 20 g/ha (ECHCG [13]): 100%; pest or weed control at 20 g/ha (AVEFA [14]): 100%; pest or weed control at 20 g/ha (VERPE; dosage 20 g/ha): 80%; pest or weed control at 80 g/ha (VERPE): 90%; pest or weed control at 20 g/ha (PHBPU [15]): 90%; pest or weed control at 20 g/ha (AMARE [16]): 100%; pest or weed control at 5 g/ha (MATIN [17]): 90%; pest or weed control at 20 g/ha (MATIN [17]): 90% |
| CCNC(=O)c1c(Br)ccc(C(=O)Nc2nnnn2CC)c1Cl [Example 2-178] | 100 | 100 | 80 | 90 | 100 | 100 | 100 | 90 | 90 | 100 | 100 | 80 | 90 | 90 | 100 | 100 | 90 | 100 | 80 | 100 | pest or weed control at 80 g/ha (VIOTR [12]): 100%; pest or weed control at 20 g/ha (ECHCG [13]): 90%; pest or weed control at 20 g/ha (AVEFA [14]): 80%; pest or weed control at 80 g/ha (VERPE): 90%; pest or weed control at 20 g/ha (VIOTR [18]): 90%; pest or weed control at 20 g/ha (PHBPU [15]): 90%; pest or weed control at 20 g/ha (AMARE [16]): 100%; pest or weed control at 5 g/ha (MATIN [17]): 90%; pest or weed control at 20 g/ha (MATIN [17]): 90% |
